# Measurements published in ChEMBL document CHEMBL3390847, “Boronic acids in medicinal chemistry: anticancer, antibacterial and antiviral applications” (Medchemcomm, 2010).
# Experiments:
# [1] = molecular target: T1, Epidermal growth factor receptor (Homo sapiens, UniProt P00533); experiment: Inhibition of EGFR kinase (unknown origin) using poly(Glu:Tyr) as substrate at 1 uM
# [2] = molecular target: T1, Epidermal growth factor receptor; experiment: Inhibition of EGFR kinase (unknown origin) using poly(Glu:Tyr) as substrate
# [3] = test system: A-431; experiment: Cytotoxicity against human A431 cells; type: functional
# [4] = Inhibition of beta-lactamase SHV2 G238S mutant (unknown origin) expressed in Escherichia coli DH10B using nitrocefin as substrate
# [5] = Inhibition of beta-lactamase SHV2 D104K mutant (unknown origin) expressed in Escherichia coli DH10B using nitrocefin as substrate
# [6] = molecular target: T2, Proteasome Macropain subunit MB1 (Homo sapiens, UniProt P28074); experiment: Inhibition of chymotrypsin-like activity of proteasome beta5 subunit (unknown origin)
# T2 sequence (P28074 whole entry): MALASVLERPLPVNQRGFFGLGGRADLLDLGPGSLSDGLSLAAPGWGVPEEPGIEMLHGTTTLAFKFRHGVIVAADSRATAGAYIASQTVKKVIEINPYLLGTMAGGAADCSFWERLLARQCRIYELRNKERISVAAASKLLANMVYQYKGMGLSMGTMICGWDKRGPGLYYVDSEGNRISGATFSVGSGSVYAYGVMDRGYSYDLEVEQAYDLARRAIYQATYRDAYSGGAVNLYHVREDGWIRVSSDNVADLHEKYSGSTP
# [7] = molecular target: T3, Proteasome subunit beta type-7 (Homo sapiens, UniProt Q99436); experiment: Inhibition of trypsin-like activity of proteasome beta7 subunit (unknown origin)
# T3 sequence (Q99436 whole entry): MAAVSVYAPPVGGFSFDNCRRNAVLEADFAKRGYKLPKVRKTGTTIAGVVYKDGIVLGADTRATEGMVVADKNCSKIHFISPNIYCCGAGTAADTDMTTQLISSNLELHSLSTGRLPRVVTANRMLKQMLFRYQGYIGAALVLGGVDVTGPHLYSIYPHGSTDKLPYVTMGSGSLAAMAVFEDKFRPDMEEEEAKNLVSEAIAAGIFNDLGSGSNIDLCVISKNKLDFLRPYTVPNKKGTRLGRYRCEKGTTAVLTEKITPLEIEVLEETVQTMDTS
# [8] = Inhibition of post-glutamyl peptide hydrolysis proteasome subunit (unknown origin); set-up: species or system Homo sapiens
# [9] = test system: B16; experiment: Cytotoxicity against mouse B16 cells; type: functional, cell-based
# [10] = Cytotoxicity against human 1-87 cells; type: functional, cell-based
# [11] = molecular target: Tubulin; experiment: Inhibition of tubulin polymerization (unknown origin) after 30 mins; type: protein-complex assay, Homo sapiens
# [12] = Inhibition of AmpC beta-lactamase (unknown origin)
# [13] = molecular target: Tubulin; experiment: Inhibition of tubulin polymerization (unknown origin); type: protein-complex assay, Homo sapiens
# [14] = test system: MCF7; experiment: Cytotoxicity against human MCF7 cells; type: functional, cell-based
# [15] = Inhibition of tubulin polymerization in rat A10 cells assessed as microtubule loss; type: cell-based
# [16] = Inhibition of AmpC beta-lactamase N289A mutant (unknown origin)
# [17] = Inhibition of TEM-1 (unknown origin)
# [18] = Inhibition of TEM-30 (unknown origin)
# [19] = Inhibition of alpha-chymotrypsin (unknown origin); set-up: species or system Homo sapiens
# [20] = test system: Staphylococcus aureus; experiment: Antimicrobial activity against Staphylococcus aureus […] after 18 hrs by broth macrodilution assay; type: functional
# [21] = test system: Staphylococcus epidermidis; experiment: Antimicrobial activity against Staphylococcus epidermidis ATCC 12228 after 18 hrs by broth macrodilution assay; type: functional; conditions: ATCC 12228, 18 h
# [22] = test system: Bacillus subtilis; experiment: Antimicrobial activity against Bacillus subtilis ATCC 23857 after 18 hrs by broth macrodilution assay; type: functional; conditions: ATCC 23857, 18 h
# [23] = test system: Moraxella catarrhalis; experiment: Antimicrobial activity against Moraxella catarrhalis after 18 hrs by broth macrodilution assay; type: functional
# [24] = molecular target: Tubulin (Homo sapiens) (UniProt P68371+Q9H4B7+P0DPH7+P68366+Q13509+Q71U36+P04350+Q3ZCM7+P07437+P68363+Q9BQE3+Q6PEY2+Q13885+Q9BVA1+Q9BUF5); experiment: Displacement of [3H]colchicine from tubulin (unknown origin) at 5 uM; type: protein-complex assay
# [25] = Inhibition of YFV recombinant NS3 protease expressed in Escherichia coli using Bz-nKRR-AMC as substrate after 30 mins; set-up: species or system Yellow fever virus
# [26] = test system: Bacillus anthracis; experiment: Antimicrobial activity against Bacillus anthracis; type: functional
# T1 sequence (P00533 whole entry): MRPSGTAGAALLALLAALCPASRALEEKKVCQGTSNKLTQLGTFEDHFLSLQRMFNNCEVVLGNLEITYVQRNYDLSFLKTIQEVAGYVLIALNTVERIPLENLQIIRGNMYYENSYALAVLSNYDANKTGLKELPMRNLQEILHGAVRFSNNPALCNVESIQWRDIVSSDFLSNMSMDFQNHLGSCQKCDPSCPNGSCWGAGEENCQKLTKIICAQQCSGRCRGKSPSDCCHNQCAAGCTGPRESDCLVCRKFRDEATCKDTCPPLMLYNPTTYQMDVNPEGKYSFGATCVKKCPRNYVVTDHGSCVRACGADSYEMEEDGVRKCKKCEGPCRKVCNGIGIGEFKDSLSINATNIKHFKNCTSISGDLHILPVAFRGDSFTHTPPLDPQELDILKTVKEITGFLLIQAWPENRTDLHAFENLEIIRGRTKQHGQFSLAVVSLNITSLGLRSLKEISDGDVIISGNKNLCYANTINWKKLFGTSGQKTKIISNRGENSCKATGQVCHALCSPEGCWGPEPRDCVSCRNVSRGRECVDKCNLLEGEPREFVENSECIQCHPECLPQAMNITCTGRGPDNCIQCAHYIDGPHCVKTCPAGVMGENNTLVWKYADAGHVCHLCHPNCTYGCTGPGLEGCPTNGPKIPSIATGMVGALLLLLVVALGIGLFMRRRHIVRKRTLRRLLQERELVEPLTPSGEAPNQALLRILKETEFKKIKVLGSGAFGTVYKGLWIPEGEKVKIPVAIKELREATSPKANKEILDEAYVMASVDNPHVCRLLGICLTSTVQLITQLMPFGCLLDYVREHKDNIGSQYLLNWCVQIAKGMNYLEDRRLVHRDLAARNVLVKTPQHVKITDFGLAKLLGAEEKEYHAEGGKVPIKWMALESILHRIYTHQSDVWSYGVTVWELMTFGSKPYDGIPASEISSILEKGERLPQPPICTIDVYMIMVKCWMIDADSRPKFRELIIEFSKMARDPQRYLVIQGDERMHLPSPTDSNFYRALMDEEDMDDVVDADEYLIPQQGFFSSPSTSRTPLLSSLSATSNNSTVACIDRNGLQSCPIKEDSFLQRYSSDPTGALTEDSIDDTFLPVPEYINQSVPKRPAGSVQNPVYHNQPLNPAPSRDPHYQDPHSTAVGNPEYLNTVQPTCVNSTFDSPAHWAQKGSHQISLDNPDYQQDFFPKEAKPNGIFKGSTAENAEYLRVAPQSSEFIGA
smiles,measurement,setting,value
OB(O)/C=C/COc1ccc2ncnc(Nc3cccc(Cl)c3)c2c1,inhibition,[1],63%
same,IC50,[2],0.27 µM
same,GI50,[3],0.68 µM
CO/N=C(/C(=O)NCB(O)O)c1csc(N)n1,Ki,[4],6.8 µM
same,Ki,[5],0.7 µM
CC(C)C[C@H](NC(=O)[C@H](Cc1ccc(O)cc1)NC(=O)[C@H](Cc1ccccc1)NC(=O)c1cnccn1)B1O[C@@H]2[C@H]3CC[C@H](C3(C)C)[C@]2(C)O1,IC50,[6],0.34 nM
same,IC50,[7],> 0.02 µM
same,IC50,[8],0.00539 µM
CC(C)C[C@H](NC(=O)[C@H](Cc1ccccc1)NC(=O)[C@H](Cc1ccc2ccccc2c1)NC(=O)c1cnccn1)B1O[C@@H]2[C@H]3CC[C@H](C3(C)C)[C@]2(C)O1,IC50,[6],0.22 nM
same,IC50,[7],> 0.02 µM
same,IC50,[8],> 0.02 µM
COc1cc(/C=C\c2cccc(B(O)O)c2)cc(OC)c1,IC50,[9],1.8 µM
same,IC50,[10],2 µM
same,IC50,[11],> 100 µM
O=C(Cc1cccs1)N[C@H](B(O)O)c1ccccc1,Ki,[12],0.035 µM
CC(C)C[C@H](NC(=O)[C@H](Cc1ccccc1)NC(=O)[C@H](Cc1ccccc1)NC(=O)c1cnccn1)B1O[C@@H]2[C@H]3CC[C@H](C3(C)C)[C@]2(C)O1,IC50,[6],0.4 nM
same,IC50,[7],> 0.02 µM
same,IC50,[8],0.00833 µM
COc1ccc(/C=C/c2cc(OC)c(OC)c(OC)c2)cc1B(O)O,IC50,[13],7.8 µM
same,IC50,[14],0.47 µM
same,EC50,[15],> 15 µM
COc1cc(C(=O)/C=C/c2cc(OC)c(OC)c(OC)c2)ccc1O,IC50,[13],> 40 µM
same,IC50,[14],> 2.5 µM
same,EC50,[15],18 µM
O=C(Cc1cccs1)N[C@H](B(O)O)c1cccc(C(=O)O)c1,Ki,[12],0.001 µM
same,Ki,[16],0.017 µM
same,Ki,[17],0.064 µM
same,Ki,[18],7.8 µM
COc1cc(C(=O)/C=C/c2cc(OC)c(OC)c(OC)c2)ccc1B(O)O,IC50,[13],> 40 µM
same,IC50,[14],> 2.5 µM
same,EC50,[15],> 15 µM
COc1cc(/C=C/C(=O)c2cc(OC)c(OC)c(OC)c2)ccc1B(O)O,IC50,[13],31 µM
same,IC50,[14],0.9 µM
same,EC50,[15],16.5 µM
OCc1ccccc1 [BENZYL ALCOHOL],Ki,[19],10000 µM
COc1cc(/C=C\c2ccc(OC)c(B(O)O)c2)cc(OC)c1,IC50,[9],0.019 µM
same,IC50,[10],0.028 µM
same,IC50,[11],21 µM
CC(C)C[C@H](NC(=O)[C@H](Cc1ccc2ccccc2c1)NC(=O)[C@H](CC(C)C)NC(=O)c1cnccn1)B1O[C@@H]2[C@H]3CC[C@H](C3(C)C)[C@]2(C)O1,IC50,[6],0.38 nM
same,IC50,[7],> 0.02 µM
same,IC50,[8],0.00391 µM
COc1ccc(/C=C\c2cc(OC)c(OC)c(OC)c2)cc1O [COMBRETASTATIN A4],IC50,[14],0.032 µM
same,EC50,[15],< 0.025 µM
same,IC50,[9],0.0046 µM
same,IC50,[10],0.0085 µM
CC(C)C[C@H](NC(=O)[C@H](Cc1ccccc1)NC(=O)[C@H](Cc1ccc2ccccc2c1)NC(=O)c1cnccn1)B(O)O,IC50,[6],0.42 nM
same,IC50,[7],> 0.02 µM
same,IC50,[8],0.00443 µM
Cc1ccc2cccc(OB(c3ccc(Cl)cc3)c3ccc(Cl)cc3)c2n1,MIC,[20],16 µg/mL
same,MIC,[21],8 µg/mL
CC(C)C[C@H](NC(=O)[C@H](Cc1ccccc1)NC(=O)[C@H](Cc1ccccc1)NC(=O)c1cnccn1)B(O)O,IC50,[6],0.55 nM
same,IC50,[7],> 0.02 µM
same,IC50,[8],0.0109 µM
C=CB(Oc1cccc2cccnc12)c1cccc(Cl)c1,MIC,[20],2 µg/mL
same,MIC,[21],1 µg/mL
same,MIC,[22],4 µg/mL
same,MIC,[23],4 µg/mL
COc1ccc(/C=C\c2cc(OC)c(OC)c(OC)c2)cc1B(O)O,IC50,[13],1.5 µM
same,IC50,[14],0.017 µM
same,EC50,[15],0.058 µM
same,inhibition,[24],79%
same,IC50,[9],0.0063 µM
same,IC50,[10],0.013 µM
same,IC50,[11],22 µM
COc1cc(/C=C\c2ccc(B(O)O)cc2)cc(OC)c1OC,IC50,[9],2.6 µM
same,IC50,[10],3.2 µM
same,IC50,[11],> 100 µM
CCCC[C@H](NC(=O)c1ccccc1)C(=O)N[C@@H](CCCCN)C(=O)N[C@@H](CCCCN)C(=O)N[C@@H](CCCNC(=N)N)B(O)O,Ki,[25],0.05 µM
Clc1ccc(C(Oc2cccc3cccnc23)c2ccc(Cl)cc2)cc1,MIC,[20],> 64 µg/mL
same,MIC,[21],> 64 µg/mL
same,MIC,[22],> 64 µg/mL
CC(C)C[C@H](NC(=O)[C@H](Cc1ccc(O)cc1)NC(=O)[C@H](Cc1ccccc1)NC(=O)c1cnccn1)B(O)O,IC50,[6],0.39 nM
same,IC50,[7],> 0.02 µM
same,IC50,[8],0.00401 µM
COc1cc(/C=C/C(=O)c2cc(OC)c(OC)c(OC)c2)ccc1O,IC50,[13],2.6 µM
same,IC50,[14],0.11 µM
same,EC50,[15],0.98 µM
Clc1cccc(B(Oc2ccc(Cl)c3cccnc23)c2cccc(Cl)c2)c1,MIC,[20],0.5 µg/mL
same,MIC,[21],0.25 µg/mL
same,MIC,[22],32 µg/mL
same,MIC,[23],≤ 0.125 µg/mL
CC[C@H]1OC(=O)[C@H](C)[C@@H](O[C@H]2C[C@@](C)(OC)[C@@H](O)[C@H](C)O2)[C@H](C)[C@@H](O[C@@H]2O[C@H](C)C[C@H](N(C)C)[C@H]2O)[C@](C)(O)C[C@@H](C)C(=O)[C@H](C)[C@@H](O)[C@]1(C)O [ERYTHROMYCIN],MIC90,[26],1.5 µg/mL
Clc1cccc(B(Oc2cccc3cccnc23)c2cccc(Cl)c2)c1,MIC,[20],1 µg/mL
same,MIC,[21],2 µg/mL
same,MIC,[22],2 µg/mL
same,MIC,[23],2 µg/mL
COc1cc(/C=C\c2cccc(B(O)O)c2)cc(OC)c1OC,IC50,[9],0.49 µM
same,IC50,[10],2.1 µM
same,IC50,[11],> 100 µM
COc1cc(/C=C\c2ccc(B(O)O)cc2)cc(OC)c1,IC50,[9],12 µM
same,IC50,[10],9.1 µM
same,IC50,[11],79 µM
C=CB(Oc1cccc2cccnc12)c1ccccc1,MIC,[20],2 µg/mL
same,MIC,[21],1 µg/mL
same,MIC,[23],2 µg/mL
CC(C)C[C@H](NC(=O)[C@H](Cc1ccc2ccccc2c1)NC(=O)[C@H](CC(C)C)NC(=O)c1cnccn1)B(O)O,IC50,[6],0.08 nM
same,IC50,[7],> 0.02 µM
same,IC50,[8],0.00363 µM
CC1(C)[C@H]2CC3OB(COc4ccc5ncnc(Nc6cccc(Cl)c6)c5c4)O[C@@]3(C)[C@@H]1C2 (some centres not stated),inhibition,[1],65%
same,IC50,[2],0.2 µM
same,GI50,[3],0.54 µM
CC(=O)OCC1=C(C(=O)O)N2C(=O)[C@@H](NC(=O)Cc3cccs3)[C@H]2SC1 [CEPHALOTHIN],Ki,[12],0.32 µM
COc1ccc(/C=C\c2cc(OC)c(OC)c(OC)c2)cc1C(=O)O,IC50,[9],160 µM
same,IC50,[10],110 µM
same,IC50,[11],> 100 µM
O=C(O)/C=C/c1cccc([C@H](NC(=O)Cc2cccs2)B(O)O)c1,Ki,[16],0.0028 µM
same,Ki,[17],0.106 µM
same,Ki,[18],3.8 µM
OB(O)c1ccccc1 [PHENYLBORONIC ACID],Ki,[19],196 µM
OB(O)c1ccc(COc2ccc3ncnc(Nc4cccc(Cl)c4)c3c2)cc1,inhibition,[1],55%
same,IC50,[2],0.85 µM
same,GI50,[3],1.82 µM
